# Test results reported in patent US10858443B2, “Synthetic notch protein for modulating gene expression” (TRUSTEES OF BOSTON UNIVERSITY, priority 2017, dated 2020).
# Entries after “also recorded” stand apart in the source; their conditions may differ.
# B1: WT NRR: "Notch's force-sensitive Negative Regulatory Region, which contains three LNR domains" (protein, listed as Homo sapiens)
# chain: ILDYSFGGGAGRDIPPPLIEEACELPECQEDAGNKVCSLQCNNHACGWDGGDCSLNFNDPWKNCTQSLQCWKYFSDGHCDSQCNSAGCLFDGFDCQRAEGQCNPLYDQYCKDHFSDGHCDQGCNSAECEWDGLDCAEHVPERLAAGTLVVVVLMPPEQLRNSSFHFLRELSRVLHTNVVFKRDAHGQQMIFPYYGREEELRKHPIKRAAEGWAAPDALLGQVKASLLPGGSEGGRRRRELDPMDVRGSIVYLEIDNRQCVQASSQCFQSATDVAAFLGALASLGSLNIPYKIEAVQSETVEPPPPAQ
# Assays:
# NS3 protease [1] = target: T1, NS3 protease (Hepatitis C virus genotype 1a, UniProt P26664, A1066T/DELINS1218-1635AV/I1179L/T1080A); format: cell-based; settings: for stabilization of full-length dCas9-NS3 TF (immunoblot): drug-treated versus untreated cells
# NS3 protease [2] = target: T1, NS3 protease; format: cell-based; settings: 3 μM BILN-2061
# CXCR4 = assay: dCas9-NS3-NLS/VPR drug-induced gene upregulation (flow cytometry); format: cell-based, human; settings: dCas9-NS3-NLS/VPR with sgRNA
# Procedure: FIGS. 16A-16E show drug-control over endogenous gene expression using dCas9-NS3-NLSNPR. FIG. 16A Schematic depiction of the drug-inducible stabilization and nuclear localization of dCas9-NS3-NLSNPR. […] An unfused dCas9 domain (160 kDa) is produced in the absence of drug. FIG. 16C Immunostained HeLa cells showing the subcellular localization of the dCas9 domain in the presence or absence of 3 μM BILN-2061. […] FIG. 16D Schematic of the time-dependent dye labeling strategy used to analyze cells expressing SNAP-dCas9-NS3-NLSNPR (top), and corresponding fluorescence images of dye-labeled HeLa cells (bottom). […] Expression of the chemokine receptor was analyzed by staining of cells anti-CXCR4 antibody followed by quantification via flow cytometry.
# FIG. 22 sgRNAs targeting the CXCR4 promoter were co-transfected into HEK 293FT alongside DNAs encoding either dCas9-VPR, or dCas9-NS3-NLS/VPR. The extent of CXCR4 upregulation was subsequently quantified by flow cytometry using a fluorescently-labeled anti-CXCR4 antibody. […]
# For expression analyses carried out using dCas9-based TFs, HEK 293FT cells were seeded in 48-well plates and transfected at a density of […] cells per well. […] Expression of the chemokine receptor was analysed via flow cytometry using a fluorescently-conjugated CXCR-4 antibody; geometric means were recorded.
# NS3 protease [3] = target: T1, NS3 protease; format: cell-based; settings: increasing concentration of BILN-2061; 100 ng/mL doxycycline
# NS3 protease [4] = target: T1, NS3 protease; format: cell-based; settings: DBGal4-NS3-TAGal4, anti-HA western; intact TF undetectable in untreated controls
# human Notch1 = assay: Dll1-NS3-mCherry ligand presentation and sender/receiver coculture Notch signaling; format: cell-based; settings: 1.5 μM BILN-2061
# Text: FIG. 17C Immunofluorescence staining of fixed (non-permeabilized) cells expressing Dll1-NS3-mCherry. […] FIG. 17D Schematic depiction of trans-cellular signaling between Notch “receiver” cells by Dll1-NS3-mCherry expressing “sender” cells in the absence and presence of drug. FIG. 17E Fluorescence images of cocultured sender and receiver cells. Sender cells expressed the Dll1-NS3-mCherry ligand. Receiver cells constitutively expressed human Notch1 and H2B-Cerulean, and conditionally expressed H2B-Citrine upon up Notch activation. […] The interface between sender and receiver cells colonies is denoted by the white dotted line. FIG. 17F Magnified region from the inset shown in (17E) shown as an overlay with the corresponding transmitted light image.
# FIGS. 25A and 25B show images of Dll1-NS3/4A-mCherry mediated cell-cell signaling captured by epifluorescence imaging under 10× magnification. FIG. 25A Sender cells expressing the Dll1-NS3/4A ligand are cultured with receiver cells expressing the Notch transmembrane receptor. Receiver cell population is identified by a constitutively expressed H2B-Cerulean. Notch activation drives reporter activity of H2B-Citrine. Cells are cultured together with or without 1.5 μM BILN-2061 drug for 72 hours before imaging. FIG. 25B […]
# NS3 protease [5] = target: T1, NS3 protease; format: cell-based; settings: Cho-K1 UAS H2B-Citrine line expressing DBGal4-NS3-TAGal4; drug ~24 hours; flow cytometry (FIG. 18)
# HEK 293FT cells [6] = assay: SynNotch background (leaky) activation, SN versus SN-LWF core, HEK 293FT cells; format: cell-based, human
# Procedure: FIGS. 31A-31C show reduction of SynNotch leakiness by incorporation of the juxtamembrane LWF motif (FIG. 31A) Schematic of the Notch TMD and LWF motif, slightly modified from to highlight the difference between the original SynNotch core's C-terminus and the modified SynNotch core's C-terminus, where 10 amino acids are added to include the LWF motif (FIGS. 31B and 31C) anti-FITC SynNotch receptors containing SN or SN-LWF as the core domain are expressed and tested in HEK 293FT cells. Cells are either plated on fibronectin alone to test background activation (dashed lines) or on fibronectin with BSA-FITC to activate the receptors (solid lines). FIG. 31A discloses SEQ ID NO: 70. […] Values shown are the percentage of cells in the ON state for each case.
# Data herein provides preliminary evidence that inclusion of the LWF motif reduces background activation in SynNotch receptors. In initial experiments, the original SynNotch core design (SN) was compare with a SynNotch core containing the LWF motif (SN-LWF) (FIG. 31A). Each receptor core was test with two different transcription factor intracellular domains (ICD's): Gal4 fused to VP64 (“VP64,” a modest transcriptional activator commonly used in SynNotch) and Gal4 fused to VPR (“VPR,” a strong transcriptional activator, whose strength is penalized by high background activation in SynNotch constructs). […]
# HEK 293FT cells [7] = assay: Tension Gauge Tether (TGT) assay of Notch/SynNotch receptor activation; format: cell-based, human; settings: mCherry reporter, flow cytometry
# Text: FIG. 5A-5E depict the use of ruptureable double-stranded DNA tethers. […] One strand of the TGT attaches to a rigid plate through biotin-avidin binding, while the other presents a ligand. The TGT ruptures at a defined force, determined by the orientation of the ligand and the biotin. If the TGT is weaker than the force required to activate the Notch receptor, it ruptures before the LNR domains can be displaced. If it is stronger, the LNR domains are displaced and activation occurs.
# (FIG. 33A) TGTs are double stranded-DNA tethers that rupture at defined forces. One strand of the TGT attaches to a rigid plate, and the other presents a ligand for cells to bind. In this case, the ligand used is fluorescein, which interacts with an αFITC SynNotch. If the tension tolerance of the TGT is weaker than that of the NRR, the TGT will break before the NRR can open. If it is stronger, the NRR domain will unravel, and Notch activation will occur, as visualized by expression of an H2B-mCherry reporter gene.
molecule,measurement,setting,value
COc1ccc2c(O[C@@H]3C[C@H]4C(=O)N[C@]5(C(=O)O)C[C@H]5/C=C\CCCCC[C@H](NC(=O)OC5CCCC5)C(=O)N4C3)cc(-c3csc(NC(C)C)n3)nc2c1 [BILN-2061],nuclear localization of dCas9 domain,"NS3 protease [1]; HeLa cells, 3 μM BILN-2061",Nuclear localized dCas9 was observed only in drug treated cells
same,stabilization of full-length dCas9-NS3 TF (immunoblot),NS3 protease [1],preservation of full-length dCas9-NS3-NLSNPR copies
same,preservation of intact turn-off TF proteins (western blot),NS3 protease [2],Intact proteins were preserved
same,"upregulation of gene targets (UAS H2B-Citrine reporter, CXCR4)",CXCR4,induce upregulation of both gene targets in a dose-dependent manner
same,regulation of TRE BFP and UAS H2B-Citrine reporters,NS3 protease [3],induced concurrent TRE BFP activation and UAS H2B-Citrine repression
same,BILN-2061 concentration at which TF stabilization was shown (enhanced detection),NS3 protease [4],0.08 µM
same,Notch activation of receiver cells (H2B-Citrine) in coculture,human Notch1; Dll1-NS3-mCherry sender cells,Activated receiver cells were observed only in cocultures treated with drug
same,surface presentation of Dll1 extracellular region,human Notch1; fixed non-permeabilized cells expressing Dll1-NS3-mCherry,Surface presentation of the Dll1 extracellular region was induced
same,expression of the H2B-Citrine reporter protein,NS3 protease [5],capable of inducing robust transcriptional responses
C[C@H](NC(=O)Cc1cc(F)cc(F)c1)C(=O)N[C@H](C(=O)OC(C)(C)C)c1ccccc1 [DAPT],effect on leaky SynNotch receptor activation,HEK 293FT cells [6],suppress leaky receptor activation
COc1ccc2c(O[C@@H]3C[C@H]4C(=O)N[C@]5(C(=O)O)C[C@H]5/C=C\CCCCC[C@H](NC(=O)OC5CCCC5)C(=O)N4C3)cc(-c3csc(NC(C)C)n3)nc2c1 [ciluprevir],stabilization of full-length dCas9-NS3 TF (immunoblot),NS3 protease [1],dCNV is stabilized
CC(C)(C)OC(=O)N[C@H]1CCCCC/C=C\[C@@H]2C[C@@]2(C(=O)NS(=O)(=O)C2CC2)NC(=O)[C@@H]2C[C@@H](OC(=O)N3Cc4cccc(F)c4C3)CN2C1=O [danoprevir],expression of the H2B-Citrine reporter protein,NS3 protease [5],capable of inducing robust transcriptional responses
B1,receptor activation on TGTs of defined strength,HEK 293FT cells [7],activated by both 12 pN and 56 pN TGTs; also recorded: responding identically to all mechanical stimuli
